In ChEMBL document CHEMBL3885881, “DrugMatrix”:

Species: Rattus norvegicus
Test: DrugMatrix - Regimen: Daily Repeat
Type: toxicity, organism-based, Sprague-Dawley
Parameters: regimen Daily Repeat, gender Male, age 6-8 weeks
Conditions: in vivo, iv, vehicle 100 % SALINE; for ABSOLUTE BASOPHIL / ABSOLUTE EOSINOPHIL / ABSOLUTE LYMPHOCYTE / ABSOLUTE MONOCYTE / ABSOLUTE SEGMENTED NEUTROPHIL / BASOPHIL / EOSINOPHIL / ERYTHROCYTE COUNT / HEMATOCRIT / HEMOGLOBIN / LEUKOCYTE COUNT / LYMPHOCYTE / MEAN CORPUSCULAR HEMOGLOBIN / MONOCYTE / NEUTROPHIL / NUCLEATED RED BLOOD CELLS / PLATELET COUNT / MEAN CORPUSCULAR HEMOGLOBIN CONCENTRATION / MEAN CORPUSCULAR VOLUME: tissue Blood
[1] = 6 mg/kg, 72 h, dose level High, time 3 day
[2] = 6 mg/kg, 72 h, tissue Plasma, dose level High, time 3 day
[3] = 6 mg/kg, 120 h, dose level High, time 5 day
[4] = 6 mg/kg, 120 h, tissue Plasma, dose level High, time 5 day
[5] = […], 72 h, dose 0.12 mg/Kg, dose level Low, time 3 day
[6] = […], 72 h, tissue Plasma, dose 0.12 mg/Kg, dose level Low, time 3 day
[7] = […], 120 h, dose 0.12 mg/Kg, dose level Low, time 5 day
[8] = […], 120 h, tissue Plasma, dose 0.12 mg/Kg, dose level Low, time 5 day

SODIUM NITROPRUSSIDE
ABSOLUTE BASOPHIL [1]: 0 CELLS/uL
ABSOLUTE EOSINOPHIL [1]: 0 CELLS/uL
ABSOLUTE LYMPHOCYTE [1]: 16076 CELLS/uL
ABSOLUTE MONOCYTE [1]: 195 CELLS/uL
ABSOLUTE SEGMENTED NEUTROPHIL [1]: 1029 CELLS/uL
BASOPHIL [1]: 0%
EOSINOPHIL [1]: 0%
ERYTHROCYTE COUNT [1]: 6.07 x10E6/uL
HEMATOCRIT [1]: 38.07%
HEMOGLOBIN [1]: 15 G/DL
LEUKOCYTE COUNT [1]: 17.3 x10E3/uL
LYMPHOCYTE [1]: 92.67%
MEAN CORPUSCULAR HEMOGLOBIN [1]: 24.73 pg
MONOCYTE [1]: 1%
NEUTROPHIL [1]: 6.33%
NUCLEATED RED BLOOD CELLS [1]: 0 /100WBC
PLATELET COUNT [1]: 1432 x10E3/uL
ALANINE AMINOTRANSFERASE [2]: 34.67 u/L
ALBUMIN [2]: 4.5 G/DL
ALKALINE PHOSPHATASE [2]: 308.33 u/L
ASPARTATE AMINOTRANSFERASE [2]: 90.67 u/L
BLOOD UREA NITROGEN [2]: 21.33 mg/dL
CARBON DIOXIDE [2]: 23.67 mmol/L
CHOLESTEROL [2]: 68 mg/dL
CREATINE PHOSPHOKINASE [2]: 251 u/L
CREATININE [2]: 0.17 mg/dL
GLUCOSE [2]: 173 mg/dL
LACTATE DEHYDROGENASE [2]: 383.67 u/L
LIPASE [2]: 8.33 u/L
PHOSPHORUS [2]: 13.27 mg/dL
POTASSIUM [2]: 6.61 MEQ/L
TOTAL BILIRUBIN [2]: 0.1 mg/dL
TOTAL PROTEIN [2]: 6.4 G/DL
URIC ACID [2]: 1.87 mg/dL
ABSOLUTE BASOPHIL [3]: 0 CELLS/uL
ABSOLUTE EOSINOPHIL [3]: 139 CELLS/uL
ABSOLUTE LYMPHOCYTE [3]: 12315 CELLS/uL
ABSOLUTE MONOCYTE [3]: 50.33 CELLS/uL
ABSOLUTE SEGMENTED NEUTROPHIL [3]: 1129 CELLS/uL
BASOPHIL [3]: 0%
EOSINOPHIL [3]: 1%
ERYTHROCYTE COUNT [3]: 5.93 x10E6/uL
HEMATOCRIT [3]: 37.1%
HEMOGLOBIN [3]: 14.97 G/DL
LEUKOCYTE COUNT [3]: 13.63 x10E3/uL
LYMPHOCYTE [3]: 90.33%
MEAN CORPUSCULAR HEMOGLOBIN [3]: 25.2 pg
MEAN CORPUSCULAR HEMOGLOBIN CONCENTRATION [3]: 40.33 G/DL
MEAN CORPUSCULAR VOLUME [3]: 62.57 fL
MONOCYTE [3]: 0.33%
NEUTROPHIL [3]: 8.33%
NUCLEATED RED BLOOD CELLS [3]: 0.33 /100WBC
PLATELET COUNT [3]: 1277.67 x10E3/uL
ALANINE AMINOTRANSFERASE [4]: 45.67 u/L
ALBUMIN [4]: 4.5 G/DL
ALKALINE PHOSPHATASE [4]: 128.33 u/L
ASPARTATE AMINOTRANSFERASE [4]: 86 u/L
CARBON DIOXIDE [4]: 18 mmol/L
CHOLESTEROL [4]: 61.67 mg/dL
CREATINE PHOSPHOKINASE [4]: 409.33 u/L
CREATININE [4]: 0.23 mg/dL
LACTATE DEHYDROGENASE [4]: 135.67 u/L
LIPASE [4]: 8.33 u/L
PHOSPHORUS [4]: 10.9 mg/dL
POTASSIUM [4]: 16.23 MEQ/L
TOTAL BILIRUBIN [4]: 0.13 mg/dL
TOTAL PROTEIN [4]: 6.07 G/DL
URIC ACID [4]: 1.4 mg/dL
ABSOLUTE BASOPHIL [5]: 0 CELLS/uL
ABSOLUTE EOSINOPHIL [5]: 0 CELLS/uL
ABSOLUTE LYMPHOCYTE [5]: 13522.67 CELLS/uL
ABSOLUTE MONOCYTE [5]: 88.33 CELLS/uL
ABSOLUTE SEGMENTED NEUTROPHIL [5]: 1389 CELLS/uL
BASOPHIL [5]: 0%
EOSINOPHIL [5]: 0%
ERYTHROCYTE COUNT [5]: 5.31 x10E6/uL
HEMATOCRIT [5]: 34.4%
HEMOGLOBIN [5]: 13.63 G/DL
LEUKOCYTE COUNT [5]: 15 x10E3/uL
MEAN CORPUSCULAR HEMOGLOBIN [5]: 25.67 pg
MEAN CORPUSCULAR HEMOGLOBIN CONCENTRATION [5]: 39.63 G/DL
MEAN CORPUSCULAR VOLUME [5]: 64.8 fL
MONOCYTE [5]: 0.67%
NEUTROPHIL [5]: 9.67%
NUCLEATED RED BLOOD CELLS [5]: 0.33 /100WBC
PLATELET COUNT [5]: 1321.67 x10E3/uL
ALANINE AMINOTRANSFERASE [6]: 54.33 u/L
ALBUMIN [6]: 4.1 G/DL
ALKALINE PHOSPHATASE [6]: 342 u/L
ASPARTATE AMINOTRANSFERASE [6]: 87.33 u/L
BLOOD UREA NITROGEN [6]: 15 mg/dL
CARBON DIOXIDE [6]: 26.67 mmol/L
CHLORIDE [6]: 98.67 MEQ/L
CHOLESTEROL [6]: 76 mg/dL
CREATINE PHOSPHOKINASE [6]: 335.67 u/L
CREATININE [6]: 0.11 mg/dL
GLUCOSE [6]: 157.67 mg/dL
LACTATE DEHYDROGENASE [6]: 223 u/L
PHOSPHORUS [6]: 12.93 mg/dL
POTASSIUM [6]: 6.73 MEQ/L
TOTAL BILIRUBIN [6]: 0.23 mg/dL
TOTAL PROTEIN [6]: 5.9 G/DL
ABSOLUTE BASOPHIL [7]: 0 CELLS/uL
ABSOLUTE EOSINOPHIL [7]: 39.33 CELLS/uL
ABSOLUTE LYMPHOCYTE [7]: 10382.67 CELLS/uL
ABSOLUTE MONOCYTE [7]: 0 CELLS/uL
ABSOLUTE SEGMENTED NEUTROPHIL [7]: 444.67 CELLS/uL
BASOPHIL [7]: 0%
EOSINOPHIL [7]: 0.33%
ERYTHROCYTE COUNT [7]: 5.02 x10E6/uL
HEMATOCRIT [7]: 31.9%
HEMOGLOBIN [7]: 12.83 G/DL
LEUKOCYTE COUNT [7]: 10.87 x10E3/uL
LYMPHOCYTE [7]: 95.67%
MEAN CORPUSCULAR HEMOGLOBIN [7]: 25.6 pg
MEAN CORPUSCULAR HEMOGLOBIN CONCENTRATION [7]: 40.23 G/DL
MEAN CORPUSCULAR VOLUME [7]: 63.6 fL
MONOCYTE [7]: 0%
NEUTROPHIL [7]: 4%
NUCLEATED RED BLOOD CELLS [7]: 0 /100WBC
PLATELET COUNT [7]: 1212.67 x10E3/uL
ALANINE AMINOTRANSFERASE [8]: 40.33 u/L
ALKALINE PHOSPHATASE [8]: 391 u/L
ASPARTATE AMINOTRANSFERASE [8]: 87.33 u/L
BLOOD UREA NITROGEN [8]: 17 mg/dL
CARBON DIOXIDE [8]: 28 mmol/L
CHOLESTEROL [8]: 71.67 mg/dL
CREATINE PHOSPHOKINASE [8]: 215.33 u/L
CREATININE [8]: 0.14 mg/dL
GLUCOSE [8]: 156.33 mg/dL
LACTATE DEHYDROGENASE [8]: 79 u/L
POTASSIUM [8]: 6.73 MEQ/L
TOTAL BILIRUBIN [8]: 0.23 mg/dL
TOTAL PROTEIN [8]: 5.87 G/DL
